Measured values published in patent US7049321B2, “Methods and pharmaceutical compositions for treatment of central and peripheral nervous system disorders and compounds useful therefor” (Israel Institute for Biological Research, priority 2002, dated 2006).
Entries after “also recorded” stand apart in the source; their conditions may differ.

How the values were obtained:
Aging microcebes = assay: Effects in aging microcebes; type: in vivo; settings: chronic treatment for 18 months
Text: Aging microcebes show similar cognitive deficits and cerebral lesions to those observed in aging humans and in AD patients. Thus this is a good animal model for AD, mimicing the three major hallmarks in AD {plaques (Aβ), paired helical filaments (hyperphophorylated and aggregated τ) and cognitive dysfunction}. This model may also be used to mimic MCI conducive to AD

ischemic rats = assay: Working memory (MWM) in ischemic rats; type: in vivo, Sprague Dawley rats; settings: 0.5 mg/kg, po, chronic
Procedure: Transient ischemia in rats was induced by a modification of the ischemia model (Voll et et al, Stroke, 20: 1700–1706, 1989). This was done by a bilateral carotid artery occlusion in Sprague Dawley rats: (42 male, 3 months old, weighing 270–340 g) combined with reduction in blood pressure induced by sodium nitropruside. Ischemia was induced in 21 rats whereas the other 21 rats served as sham controls. Under pentobarbital anasthesia (30 mg/kg, ip), sodium nitropruside 4.8 mg/kg/hr) was infused through a cannula implanted in the tail vein, for a period of 25 min. Five min after the initiation of the infusion, at the time when mean blood pressure was maintained at 30–60 mmHg (intial levels ˜110 mm Hg) both carotid arteries were clamped for 20 min. Immediately afterwards 1.8 mEq sodium bicarbonate solution was administerd ip in order to minimize systemic acidosis. The sham operated rats were anesthetized as the ischemic rats and were infused with saline. […] In rats subjected to ischemia, a mortality of about 30% was recorded within 24 hr after surgery. […]
The ratio of escape latency (REL) and the ratio of path length (RPL) were calculated by the ratio of block no 2/block no 1 for each parameter. […] REL and RPL were analyzed by a 3-way ANOVA (2×2×3), with one repeated variable (weeks) and two non-repeated variables (Operation-ischemia/sham-operated and Treatment AF150(S)/DDW).

[1] = Ex vivo brain penetration in mice (GC and binding); settings: for half-life: mice brain
Procedure: (§3) This calculation was based on the brain weight (2 gr) vs. total plasma volume (14 ml).

[2] = target: mAChR receptors, Rat Cortical (CTX) Membranes; type: binding; settings: read-out: Ki, QNB
[3] = tested on: Opiods/Opiate, Non-Selective; assay: Opiate non-selective binding; settings: at 10^−4 M
β-catenin = β-catenin stabilization in rat hippocampal neurons; type: cell-based
Procedure: This study was performed in rat hippocampal primary cell cultures using the methods described by Garrido J L et al. (FASEB J 2002; 16:1982).

[4] = mouse, in vivo
Procedure: as §3

[5] = pKa and free-base fraction of AF267B; settings: pH=7.35 of CSF, calculated from pKa
Procedure: as §3

M5 receptor = target: T1, M5 receptor (Homo sapiens, UniProt P08912); assay: PI hydrolysis in cells transfected with human M5; type: cell-based
T1 construct: expressed in transfected cells
T1 sequence (P08912 whole entry): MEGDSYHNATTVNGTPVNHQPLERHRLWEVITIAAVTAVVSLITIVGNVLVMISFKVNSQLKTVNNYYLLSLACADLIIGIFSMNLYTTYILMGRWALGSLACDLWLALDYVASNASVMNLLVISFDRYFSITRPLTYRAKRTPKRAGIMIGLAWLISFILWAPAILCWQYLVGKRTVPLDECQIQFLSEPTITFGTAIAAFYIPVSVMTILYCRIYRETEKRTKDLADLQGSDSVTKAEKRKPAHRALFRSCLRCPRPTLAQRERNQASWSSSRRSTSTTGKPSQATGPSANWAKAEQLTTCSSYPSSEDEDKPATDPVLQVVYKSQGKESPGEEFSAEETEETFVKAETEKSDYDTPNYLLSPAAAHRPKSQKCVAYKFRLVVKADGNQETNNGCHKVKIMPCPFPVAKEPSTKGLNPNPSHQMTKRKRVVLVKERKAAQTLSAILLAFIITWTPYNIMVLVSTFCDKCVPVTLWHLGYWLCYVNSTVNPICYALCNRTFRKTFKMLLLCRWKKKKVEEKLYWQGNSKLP

M2 (human) = M2 (human) (Homo sapiens, UniProt P08172); assay: Binding study, M2 (human); settings: 10 μm
Chain of M2 (human) (P08172 whole entry): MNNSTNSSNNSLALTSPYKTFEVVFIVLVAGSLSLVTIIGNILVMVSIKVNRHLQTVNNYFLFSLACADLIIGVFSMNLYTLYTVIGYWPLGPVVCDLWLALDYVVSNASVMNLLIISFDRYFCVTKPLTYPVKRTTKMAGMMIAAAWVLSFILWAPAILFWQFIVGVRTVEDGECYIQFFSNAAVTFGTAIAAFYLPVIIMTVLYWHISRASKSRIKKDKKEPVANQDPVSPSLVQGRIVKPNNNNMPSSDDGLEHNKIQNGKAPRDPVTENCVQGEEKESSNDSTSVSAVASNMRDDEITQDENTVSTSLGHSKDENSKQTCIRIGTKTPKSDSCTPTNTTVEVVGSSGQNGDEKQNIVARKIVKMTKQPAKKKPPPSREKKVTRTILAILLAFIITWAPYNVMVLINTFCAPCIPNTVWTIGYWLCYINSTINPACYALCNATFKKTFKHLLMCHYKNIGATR

M3 (human) [6] = target: T2, M3 (human) (Homo sapiens, UniProt P20309); assay: Binding study, M3 (human); settings: 10 μm
T2 sequence (P20309 whole entry): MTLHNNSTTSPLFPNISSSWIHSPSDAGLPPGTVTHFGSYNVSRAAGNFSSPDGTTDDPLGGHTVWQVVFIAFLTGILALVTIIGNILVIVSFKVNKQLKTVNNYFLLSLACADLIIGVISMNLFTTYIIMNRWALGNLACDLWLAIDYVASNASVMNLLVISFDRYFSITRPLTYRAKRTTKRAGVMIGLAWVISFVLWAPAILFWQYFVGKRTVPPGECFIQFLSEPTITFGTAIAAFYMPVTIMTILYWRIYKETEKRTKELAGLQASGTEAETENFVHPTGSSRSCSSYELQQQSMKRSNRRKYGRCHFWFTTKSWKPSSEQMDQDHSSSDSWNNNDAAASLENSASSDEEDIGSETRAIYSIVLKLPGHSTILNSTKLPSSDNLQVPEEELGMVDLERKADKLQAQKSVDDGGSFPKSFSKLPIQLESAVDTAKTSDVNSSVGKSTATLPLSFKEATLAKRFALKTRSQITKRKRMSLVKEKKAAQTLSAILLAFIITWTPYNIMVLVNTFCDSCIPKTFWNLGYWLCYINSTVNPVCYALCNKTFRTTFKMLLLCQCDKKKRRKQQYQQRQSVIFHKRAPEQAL

hERG-encoded channel = hERG-encoded channel (Homo sapiens, UniProt Q12809); assay: Astemizole (HERG channel) binding assay
Chain of hERG-encoded channel (Q12809 whole entry): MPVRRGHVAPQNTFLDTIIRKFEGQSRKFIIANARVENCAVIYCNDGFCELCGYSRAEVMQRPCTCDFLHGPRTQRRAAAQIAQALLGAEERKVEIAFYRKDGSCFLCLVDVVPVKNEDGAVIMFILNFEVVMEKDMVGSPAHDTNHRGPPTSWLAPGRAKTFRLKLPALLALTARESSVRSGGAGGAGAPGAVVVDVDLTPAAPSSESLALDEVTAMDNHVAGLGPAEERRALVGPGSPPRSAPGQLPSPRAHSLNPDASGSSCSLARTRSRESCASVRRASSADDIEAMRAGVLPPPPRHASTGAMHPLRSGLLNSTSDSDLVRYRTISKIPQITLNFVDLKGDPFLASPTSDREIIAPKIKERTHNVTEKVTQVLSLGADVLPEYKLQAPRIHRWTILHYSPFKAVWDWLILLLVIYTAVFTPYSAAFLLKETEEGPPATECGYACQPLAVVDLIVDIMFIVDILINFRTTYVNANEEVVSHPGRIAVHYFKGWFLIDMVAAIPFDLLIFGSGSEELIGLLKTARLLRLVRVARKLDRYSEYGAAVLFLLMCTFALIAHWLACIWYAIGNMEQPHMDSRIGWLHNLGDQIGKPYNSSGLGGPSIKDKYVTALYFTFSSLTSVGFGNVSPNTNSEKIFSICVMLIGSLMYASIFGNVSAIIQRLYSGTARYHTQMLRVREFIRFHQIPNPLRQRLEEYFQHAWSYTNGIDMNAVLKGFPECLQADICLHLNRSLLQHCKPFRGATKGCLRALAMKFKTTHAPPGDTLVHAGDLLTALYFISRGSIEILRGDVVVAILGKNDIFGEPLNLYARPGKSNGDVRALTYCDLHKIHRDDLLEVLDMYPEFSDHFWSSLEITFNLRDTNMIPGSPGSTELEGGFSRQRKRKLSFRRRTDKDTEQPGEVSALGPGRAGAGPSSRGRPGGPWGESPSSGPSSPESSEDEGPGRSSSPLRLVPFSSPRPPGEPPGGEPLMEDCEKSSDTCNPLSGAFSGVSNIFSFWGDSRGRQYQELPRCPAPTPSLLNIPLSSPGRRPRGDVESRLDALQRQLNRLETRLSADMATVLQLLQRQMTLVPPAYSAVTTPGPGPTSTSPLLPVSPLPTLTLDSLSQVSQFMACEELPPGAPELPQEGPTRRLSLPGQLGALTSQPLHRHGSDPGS
Procedure: (§1) • 1. Astemizole (human ether-a-go-go related gene (HERG) Channel) Binding Assay. […] Isolated Guinea Pig Right Atrium (atrial fibrillation). […] Effects of AF292 (dose 5 mg/kg orally) on cardiac electrophysiological, cardio-haemodynamic in instrumented, awake dogs. Healthy trained and chronically instrumented female Beagle dogs of varying age and ranging in body weight from 9.4 to 12 kg, were used for recording of the cardiovascular parameters: heart rate, diastolic and systolic blood pressure, pressure rate product, LV dp/dt max, LV dp/dt max/pd, LV dp/dt min, cardiac output, stroke volume, systemic vascular resistance and the ECG parameters (PQ-, QRS-, QT-, QTcBazett-(QTcB), QTcFridericia-(QTcF) and QTcVan de Water-(QTcVdW) interval duration and QT-dispersion. During the last 18 hours prior to the experiments, the dogs had no access to food. Water was available ad libitum. At the beginning of each experiment, control values of the various parameters were recorded for at least 30 min. Thereafter, 5 mg/kg of AF292 (n=4) or the corresponding volume of the solvent (n=4) was administered orally by gavage. The various haemodynamic parameters were recorded continuously for 4 hours thereafter.

[7] = tested on: Isolated Guinea Pig Right Atrium; assay: Isolated guinea pig right atrium
Procedure: as §1

CYP1A2 = CYP1A2 (Homo sapiens, UniProt P05177); assay: Cytochrome P450 inhibition, CYP1A2; type: in vitro ADME; settings: up to 10 μM
Chain of CYP1A2 (P05177 whole entry): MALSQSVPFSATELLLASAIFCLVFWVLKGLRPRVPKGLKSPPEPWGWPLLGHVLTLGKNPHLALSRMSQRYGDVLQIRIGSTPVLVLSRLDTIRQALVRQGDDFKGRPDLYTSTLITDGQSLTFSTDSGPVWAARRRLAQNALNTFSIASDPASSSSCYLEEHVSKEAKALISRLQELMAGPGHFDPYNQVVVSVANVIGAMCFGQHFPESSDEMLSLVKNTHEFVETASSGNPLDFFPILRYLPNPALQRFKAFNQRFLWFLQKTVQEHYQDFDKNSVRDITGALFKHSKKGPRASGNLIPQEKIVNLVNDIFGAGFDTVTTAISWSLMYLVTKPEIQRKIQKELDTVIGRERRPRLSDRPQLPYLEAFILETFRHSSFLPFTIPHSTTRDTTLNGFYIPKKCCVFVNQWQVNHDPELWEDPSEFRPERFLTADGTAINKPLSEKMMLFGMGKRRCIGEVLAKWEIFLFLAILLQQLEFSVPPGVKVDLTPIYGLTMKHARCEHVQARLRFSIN
Procedure: (§2) Cytochrome P450 activity can be an indicator for potential drug-drug interactions. AF292 was evaluated in a microtiter plate assay for P450 inhibition.

CYP2C9 = CYP2C9 (Homo sapiens, UniProt P11712); assay: Cytochrome P450 inhibition, CYP2C9; type: in vitro ADME; settings: up to 10 μM
Chain of CYP2C9 (P11712 whole entry): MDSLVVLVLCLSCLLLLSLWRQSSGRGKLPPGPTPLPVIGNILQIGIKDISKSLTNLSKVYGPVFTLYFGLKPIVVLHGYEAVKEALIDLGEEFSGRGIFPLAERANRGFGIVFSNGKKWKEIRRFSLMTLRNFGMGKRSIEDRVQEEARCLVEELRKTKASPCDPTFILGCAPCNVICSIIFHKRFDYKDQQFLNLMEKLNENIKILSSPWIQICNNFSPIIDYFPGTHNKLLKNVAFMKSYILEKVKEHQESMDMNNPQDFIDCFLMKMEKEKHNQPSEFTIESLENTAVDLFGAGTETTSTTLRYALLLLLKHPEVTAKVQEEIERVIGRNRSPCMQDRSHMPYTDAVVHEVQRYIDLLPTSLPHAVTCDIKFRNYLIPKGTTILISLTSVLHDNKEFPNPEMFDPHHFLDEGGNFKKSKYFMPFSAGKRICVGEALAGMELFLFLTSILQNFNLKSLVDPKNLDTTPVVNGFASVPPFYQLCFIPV
Procedure: as §2

CYP2C19 = CYP2C19 (Homo sapiens, UniProt P33261); assay: Cytochrome P450 inhibition, CYP2C19; type: in vitro ADME; settings: up to 10 μM
Chain of CYP2C19 (P33261 whole entry): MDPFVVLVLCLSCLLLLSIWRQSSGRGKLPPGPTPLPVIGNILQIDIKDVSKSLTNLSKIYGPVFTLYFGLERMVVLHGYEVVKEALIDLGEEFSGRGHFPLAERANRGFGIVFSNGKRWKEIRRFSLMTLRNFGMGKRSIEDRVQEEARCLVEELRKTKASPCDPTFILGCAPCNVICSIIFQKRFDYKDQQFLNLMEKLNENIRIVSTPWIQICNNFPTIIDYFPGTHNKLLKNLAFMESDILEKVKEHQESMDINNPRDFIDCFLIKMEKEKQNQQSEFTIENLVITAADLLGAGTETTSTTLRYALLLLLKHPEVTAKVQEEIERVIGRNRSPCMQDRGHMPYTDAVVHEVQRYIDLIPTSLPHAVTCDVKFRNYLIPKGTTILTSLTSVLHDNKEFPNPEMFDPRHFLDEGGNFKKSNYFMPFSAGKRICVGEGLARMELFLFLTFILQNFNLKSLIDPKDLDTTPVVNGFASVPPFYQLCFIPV
Procedure: as §2

trihexyphenidyl rats = assay: Passive avoidance in trihexyphenidyl-treated rats; type: in vivo, Wistar rats; settings: 0.03 mg/kg, po, 72 hrs delay; DDW 93.1±29.0
M3 (human) [8] = target: T2, M3 (human); assay: PI hydrolysis in cells transfected with human M3; type: cell-based; set-up: expressed in transfected cells

CC1=NCC2(CCN(C)CC2)S1 [AF150(S), 2,8-Dimethyl-1-thia-3,8-diaza-spiro[4.5]dec-2-ene]
Astrogliosis and inflammation (Aging microcebes): decreased astrogliosis and inflammation
Cognitive and behavioral impairments (Aging microcebes): improved the cognitive and behavioral impairments
Hyperphosphorylated τ, aggregated τ neurons, paired helical filaments (Aging microcebes): decreased hyperphosphorylated τ proteins
Working memory performance (REL and RPL) (ischemic rats): significantly improved working memory performance
brain penetration time ([1]; iv): 1 min
MRT ([1]; mouse, in vivo, 100 μmole/kg): 50 min
half-life ([1]; mouse, in vivo, iv, T1/2, first phase): 21 min
half-life ([1]; mouse, in vivo, iv, T1/2, second phase): 53 min

CC[C@@H]1SC2(CCN(C)CC2)NC1=O [AF267B, (S)-2-ethyl-8-methyl-1-thia-4,8-diaza-spiro[4.5]decan-3-one]
Ki [2]: 49.6 ± 9 µM
% inhibition [3]: 52.5%
soluble β-catenin level (β-catenin; 1 μM): 100%
nuclear β-catenin vs control (β-catenin; 1 μM, Aβ1–40 (5 μM)): 140%
soluble β-catenin level (β-catenin; 10 μM): 300%
soluble β-catenin level (β-catenin; 100 μM): 350%
Aβ-induced degradation of soluble β-catenin (β-catenin; 100 μM, Aβ1–40 (5 μM)): this degradation was prevented
time detected in the brain after dosing [4]: 2 to 240 min
% of compound in free base form [5]: 26.2%

CC[C@@H]1SC2(CCNCC2)NC1=O [AF292, (S)-2-Ethyl-1-thia-4,8-diaza-spiro[4.5]decan-3-one]
PI turnover, M5, agonist activity (M5 receptor): No activity; also recorded: PI, AA: M5 mAChR - no effect as agonist
Binding, % (M2 (human)): 61%
Binding, % (M3 (human) [6]): 55%
[3H]-Astemizole binding inhibition (hERG-encoded channel): inactive
Contractile force [7]: no significant effect on contractile force
Contractile rate [7]: tended to slightly reduce the contractile rate
Inhibition of CYP1A2 (CYP1A2): did not induce significant inhibition
Inhibition of CYP2C9 (CYP2C9): did not induce significant inhibition
Inhibition of CYP2C19 (CYP2C19): did not induce significant inhibition
Retention latency (trihexyphenidyl rats): 225.9 ± 36 s
PI turnover vs. carbachol, M3 (M3 (human) [8]; human M3): No activity; also recorded: PI., AA: M3 mAChR: Not active as agonist
Kb (M3 (human) [8]; read-out: pKb, M3 antagonist (converted)): 660 nM
